Data reported in PMC9841593 (ACS Medicinal Chemistry Letters, 2022).

Assay: pH-metric titration of pKa

SMILES: O=C(O)c1[nH]c(Br)cc(=O)c1O [Compound 2]
- Measured pKa (phenolic proton, pH-metric titration): 9.79 ± 0.01

SMILES: NC(=O)c1[nH]c(Br)cc(=O)c1O [Compound 3]
- pKa: 9.64 ± 0.02

SMILES: O=c1cc(Br)[nH]c(-c2nnn[nH]2)c1O [Compound 4]
- pKa: > 12

SMILES: N/C(=N\O)c1[nH]c(Br)cc(=O)c1O [Compound 6]
- pKa: 9.06 ± 0.02
